# Results as given in ChEMBL document CHEMBL4602647, “Protective effects of 10,11-dihydro-5H-dibenzo[b,f]azepine hydroxamates on vascular cognitive impairment” (Eur J Med Chem, 2020).
# Activity calls are given as the source filed them. The rule behind the calls is not given here.
# Legend:
# Histone deacetylase 2 = Histone deacetylase 2 (Homo sapiens, UniProt Q92769); assay: Inhibition of recombinant human C-terminal GST-tagged HDAC2 (1 to 488 residues) expressed in baculovirus infected sf21 cells using RHK-K(Ac)-AMC as substrate after 60 mins by fluorimetry assay; conditions: read-out: IC50
# Chain of Histone deacetylase 2 (Q92769 whole entry, the tested form may be a part): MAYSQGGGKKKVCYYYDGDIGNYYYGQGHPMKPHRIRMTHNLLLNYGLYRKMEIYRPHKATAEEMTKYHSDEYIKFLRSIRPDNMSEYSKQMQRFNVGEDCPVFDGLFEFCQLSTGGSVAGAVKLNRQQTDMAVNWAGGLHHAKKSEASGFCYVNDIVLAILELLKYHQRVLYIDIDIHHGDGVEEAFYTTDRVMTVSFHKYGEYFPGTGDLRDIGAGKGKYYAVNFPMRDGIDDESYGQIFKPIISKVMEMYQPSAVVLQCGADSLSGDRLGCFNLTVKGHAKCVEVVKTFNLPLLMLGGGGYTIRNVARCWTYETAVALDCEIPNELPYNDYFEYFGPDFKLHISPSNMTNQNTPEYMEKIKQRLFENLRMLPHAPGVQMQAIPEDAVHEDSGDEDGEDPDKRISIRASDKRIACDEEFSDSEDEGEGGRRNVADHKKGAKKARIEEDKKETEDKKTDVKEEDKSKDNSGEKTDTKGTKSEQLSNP
# Histone deacetylase 4 = Histone deacetylase 4 (Homo sapiens, UniProt P56524); assay: Inhibition of recombinant N-terminal GST-tagged/C-terminal His-tagged human HDAC4 (627 to 1084 residues) expressed in baculovirus infected insect cells using RHK-K(Ac)-AMC as substrate after 60 mins by fluorimetry analysis
# Chain of Histone deacetylase 4 (P56524 whole entry, the tested form may be a part): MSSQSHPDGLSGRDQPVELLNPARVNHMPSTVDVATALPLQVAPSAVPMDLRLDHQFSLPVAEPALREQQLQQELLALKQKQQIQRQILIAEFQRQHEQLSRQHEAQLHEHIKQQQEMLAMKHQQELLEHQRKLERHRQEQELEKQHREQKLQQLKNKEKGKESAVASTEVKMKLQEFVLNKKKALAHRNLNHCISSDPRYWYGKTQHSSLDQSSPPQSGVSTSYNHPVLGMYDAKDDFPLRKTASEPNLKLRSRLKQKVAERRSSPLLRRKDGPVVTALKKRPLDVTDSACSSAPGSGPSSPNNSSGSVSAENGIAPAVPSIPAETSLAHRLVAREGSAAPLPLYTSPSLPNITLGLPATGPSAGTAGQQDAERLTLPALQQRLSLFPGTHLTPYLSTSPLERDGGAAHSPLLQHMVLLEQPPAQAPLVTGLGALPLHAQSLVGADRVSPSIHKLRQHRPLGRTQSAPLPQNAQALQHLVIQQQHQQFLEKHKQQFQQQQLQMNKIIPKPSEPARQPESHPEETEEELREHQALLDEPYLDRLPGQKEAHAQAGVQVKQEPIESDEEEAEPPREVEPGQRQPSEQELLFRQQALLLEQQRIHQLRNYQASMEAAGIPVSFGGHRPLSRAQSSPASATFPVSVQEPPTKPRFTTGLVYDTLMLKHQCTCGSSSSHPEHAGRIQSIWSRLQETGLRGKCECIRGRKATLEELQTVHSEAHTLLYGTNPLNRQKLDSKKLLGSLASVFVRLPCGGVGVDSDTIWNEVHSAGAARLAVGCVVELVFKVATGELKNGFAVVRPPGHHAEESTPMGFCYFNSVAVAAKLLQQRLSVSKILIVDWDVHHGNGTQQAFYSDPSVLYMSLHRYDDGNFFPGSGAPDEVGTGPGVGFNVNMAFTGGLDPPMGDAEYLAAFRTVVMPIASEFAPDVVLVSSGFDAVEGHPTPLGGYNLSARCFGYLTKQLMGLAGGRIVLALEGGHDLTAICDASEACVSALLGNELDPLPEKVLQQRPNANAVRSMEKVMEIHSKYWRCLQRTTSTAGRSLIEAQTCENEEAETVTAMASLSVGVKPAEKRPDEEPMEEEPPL
# [1] = Clearance in Sprague-Dawley rat at 2 mg/kg, iv measured up to 24 hrs; type: ADME, organism-based; conditions: in vivo
# [2] = Half life in Sprague-Dawley rat at 2 mg/kg, iv measured up to 24 hrs; type: ADME, organism-based; conditions: in vivo
# Histone deacetylase 8 = target: T1, Histone deacetylase 8 (Homo sapiens, UniProt Q9BY41); assay: Inhibition of recombinant C-terminal His-tagged and N-terminal Streptavidin2-tagged human HDAC8 (1 to 377 residues) expressed in baculovirus infected insect cells using RHK-K(Ac)-AMC as substrate after 60 mins by fluorescence assay
# T1 sequence (Q9BY41 whole entry): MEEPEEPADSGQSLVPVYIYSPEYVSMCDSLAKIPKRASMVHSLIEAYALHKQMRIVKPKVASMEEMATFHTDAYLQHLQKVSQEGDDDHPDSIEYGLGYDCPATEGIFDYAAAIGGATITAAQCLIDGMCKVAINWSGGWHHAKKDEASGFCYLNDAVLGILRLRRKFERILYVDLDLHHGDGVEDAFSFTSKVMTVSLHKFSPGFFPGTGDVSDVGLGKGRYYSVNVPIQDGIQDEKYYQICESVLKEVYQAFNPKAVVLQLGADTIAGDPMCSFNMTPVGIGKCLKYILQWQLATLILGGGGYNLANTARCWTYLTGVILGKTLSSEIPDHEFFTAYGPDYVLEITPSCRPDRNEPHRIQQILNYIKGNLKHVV
# Histone deacetylase 5 = Histone deacetylase 5 (Homo sapiens, UniProt Q9UQL6); assay: Inhibition of recombinant human C-terminal His-tagged HDAC5 (657 to 1123 residues) expressed in baculovirus infected insect cells using Boc-K(Ac)-AMC as substrate after 60 mins by fluorimetry analysis
# Chain of Histone deacetylase 5 (Q9UQL6 whole entry, the tested form may be a part): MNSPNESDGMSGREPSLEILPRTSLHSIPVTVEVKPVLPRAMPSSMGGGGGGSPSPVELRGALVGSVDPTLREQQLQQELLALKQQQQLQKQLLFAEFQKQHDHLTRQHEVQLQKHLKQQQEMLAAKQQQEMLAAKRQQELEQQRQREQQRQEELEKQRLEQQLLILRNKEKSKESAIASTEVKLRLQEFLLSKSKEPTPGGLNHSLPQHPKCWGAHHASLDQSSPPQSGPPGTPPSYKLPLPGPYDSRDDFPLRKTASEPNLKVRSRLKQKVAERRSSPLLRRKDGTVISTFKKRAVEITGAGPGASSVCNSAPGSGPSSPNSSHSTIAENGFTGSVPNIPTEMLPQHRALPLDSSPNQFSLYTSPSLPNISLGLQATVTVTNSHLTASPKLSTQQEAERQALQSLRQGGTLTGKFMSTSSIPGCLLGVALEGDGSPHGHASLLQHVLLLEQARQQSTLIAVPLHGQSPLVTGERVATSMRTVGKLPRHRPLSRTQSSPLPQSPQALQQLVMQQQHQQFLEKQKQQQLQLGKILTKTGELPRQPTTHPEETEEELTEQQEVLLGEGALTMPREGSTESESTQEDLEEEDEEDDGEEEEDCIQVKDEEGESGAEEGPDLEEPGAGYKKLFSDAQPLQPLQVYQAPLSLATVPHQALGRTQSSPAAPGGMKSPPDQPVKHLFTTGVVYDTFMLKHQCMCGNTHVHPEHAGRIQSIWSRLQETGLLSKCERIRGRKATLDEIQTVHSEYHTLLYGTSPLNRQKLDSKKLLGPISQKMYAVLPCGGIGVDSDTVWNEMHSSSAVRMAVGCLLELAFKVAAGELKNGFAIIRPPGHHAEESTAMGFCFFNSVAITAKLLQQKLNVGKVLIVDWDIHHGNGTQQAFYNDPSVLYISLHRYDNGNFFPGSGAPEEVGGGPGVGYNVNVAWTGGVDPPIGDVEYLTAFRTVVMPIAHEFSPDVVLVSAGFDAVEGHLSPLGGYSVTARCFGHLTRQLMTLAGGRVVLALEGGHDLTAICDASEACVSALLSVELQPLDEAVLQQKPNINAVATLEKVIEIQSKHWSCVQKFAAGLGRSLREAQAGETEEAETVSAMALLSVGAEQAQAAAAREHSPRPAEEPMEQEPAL
# Histone deacetylase 1 = Histone deacetylase 1 (Homo sapiens, UniProt Q13547); assay: Inhibition of recombinant full length human C-terminal FLAG/His-tagged HDAC1 (1 to 482 residues) expressed in baculovirus infected Sf21 cells using RHK-K(Ac)-AMC as substrate measured after 60 mins by fluorimetric assay; conditions: read-out: IC50
# Chain of Histone deacetylase 1 (Q13547 whole entry, the tested form may be a part): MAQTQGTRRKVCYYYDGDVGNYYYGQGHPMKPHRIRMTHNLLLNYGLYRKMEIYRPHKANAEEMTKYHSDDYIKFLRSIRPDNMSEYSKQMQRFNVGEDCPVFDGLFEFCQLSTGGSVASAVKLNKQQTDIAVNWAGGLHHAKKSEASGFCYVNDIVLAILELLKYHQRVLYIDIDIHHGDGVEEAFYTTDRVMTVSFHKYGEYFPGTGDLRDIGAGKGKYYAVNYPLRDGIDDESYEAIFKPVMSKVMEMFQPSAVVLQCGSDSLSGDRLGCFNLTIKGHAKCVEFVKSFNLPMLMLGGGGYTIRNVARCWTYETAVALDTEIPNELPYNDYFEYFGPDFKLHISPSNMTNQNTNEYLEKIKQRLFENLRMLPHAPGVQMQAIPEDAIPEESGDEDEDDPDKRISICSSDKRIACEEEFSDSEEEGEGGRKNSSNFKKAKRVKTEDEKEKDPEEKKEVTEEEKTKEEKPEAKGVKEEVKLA
# [3] = Volume of distribution at steady state in Sprague-Dawley rat at 2 mg/kg, iv measured up to 24 hrs; type: ADME, organism-based; conditions: in vivo, read-out: Vdss
# [4] = Half life in Sprague-Dawley rat at 10 mg/kg, po measured up to 24 hrs; type: ADME, organism-based; conditions: in vivo
# [5] = Cmax in Sprague-Dawley rat at 10 mg/kg, po measured up to 24 hrs; type: ADME, organism-based; set-up: dose 10 mg/kg, route oral; conditions: in vivo
# [6] = Tmax in Sprague-Dawley rat at 10 mg/kg, po measured up to 24 hrs; type: ADME, organism-based; conditions: in vivo
# [7] = Microsomal stability in rat liver microsomes assessed as parent compound remaining measured after 30 mins; type: ADME, Microsome; conditions: read-out: Stability
# [8] = Microsomal stability in human liver microsomes assessed as parent compound remaining measured after 30 mins; type: ADME, Microsome; conditions: read-out: Stability
# [9] = Aqueous solubility of compound in water incubated at 37 degree C by LC-MS analysis; type: physicochemical
# [10] = Aqueous solubility of compound in ethanol incubated at 37 degree C by LC-MS analysis; type: physicochemical
# Mus musculus [11] = assay: Anti-vascular cognitive impairment activity against bilateral common carotid artery occlusion-induced vascular dementia C57BL/6J mouse model assessed as improvement in short-term non-spatial working memory by measuring increase in novel object recognition at 25 mg/kg, ip administered post surgery measured after 1 to 3 months by novel object recognition test; type: functional, organism-based
# Mus musculus [12] = assay: Anti-vascular cognitive impairment activity against bilateral common carotid artery occlusion-induced vascular dementia C57BL/6J mouse model assessed as reversal of hippocampal atrophy by measuring increase in ratio of size of hippocampus to lateral ventricle at 25 mg/kg, ip administered post surgery measured after 3 months by 7T-MRI analysis; type: functional, organism-based
# Mus musculus [13] = assay: Anti-vascular cognitive impairment activity against bilateral common carotid artery occlusion-induced vascular dementia C57BL/6J mouse model assessed as ratio of cerebral blood flow in right parietal area at 25 mg/kg, ip administered post surgery measured after 3 months (reference value: 0.761 +/- 0.037); type: functional
# Mus musculus [14] = assay: Upregulation of acetylated H3K14 protein expression in right side cortex of bilateral common carotid artery occlusion-induced vascular dementia C57BL/6J mouse model at 25 mg/kg, ip measured after 3 months by Western blot analysis; type: functional, organism-based
# Mus musculus [15] = assay: Upregulation of acetylated H3K14 protein expression in left side cortex of bilateral common carotid artery occlusion-induced vascular dementia C57BL/6J mouse model at 25 mg/kg, ip measured after 3 months by Western blot analysis; type: functional, organism-based
# Mus musculus [16] = assay: Upregulation of acetylated H4K5 protein expression in right side cortex of bilateral common carotid artery occlusion-induced vascular dementia C57BL/6J mouse model at 25 mg/kg, ip measured after 3 months by Western blot analysis; type: functional, organism-based
# Mus musculus [17] = assay: Upregulation of acetylated H4K5 protein expression in left side cortex of bilateral common carotid artery occlusion-induced vascular dementia C57BL/6J mouse model at 25 mg/kg, ip measured after 3 months by Western blot analysis; type: functional, organism-based
# Mus musculus [18] = assay: Upregulation of acetylated H3K14 protein expression in hippocampus of bilateral common carotid artery occlusion-induced vascular dementia C57BL/6J mouse model at 25 mg/kg, ip measured after 3 months by Western blot analysis; type: functional, organism-based
# Mus musculus [19] = assay: Anti-vascular cognitive impairment activity against bilateral common carotid artery occlusion-induced vascular dementia C57BL/6J mouse model assessed as reduction in cerebral blood flow at 25 mg/kg, ip administered post surgery measured after 3 months relative to sham-operated control; type: functional; set-up: scale not given: the % may be the effect or the level left
# Mus musculus [20] = assay: Anti-vascular cognitive impairment activity against bilateral common carotid artery occlusion-induced vascular dementia C57BL/6J mouse model assessed as reversal of hippocampal atrophy by measuring increase in hippocampal volume at 25 mg/kg, ip administered post surgery measured after 3 months by 7T-MRI analysis; type: functional, organism-based
compound,measurement,setting,value
O=C(/C=C/c1ccc(CNCCCN2c3ccccc3CCc3ccc(Cl)cc32)cc1)NO,IC50,Histone deacetylase 2,6.62 µM
same,IC50,Histone deacetylase 4,Not Active
same,clearance,[1],21.3 mL/min/kg
same,half-life,[2],17.2 h
same,IC50,Histone deacetylase 8,0.533 µM
same,IC50,Histone deacetylase 5,6.27 µM
same,IC50,Histone deacetylase 1,3.82 µM
same,Vd,[3],13.8 L/kg
same,half-life,[4],10.9 h
same,Cmax,[5],8.9 ng/mL
same,Tmax,[6],3.5 h
same,remaining at 0.5 h,[7],37.4%
same,remaining at 0.5 h,[8],81.5%
same,solubility,[9],< 1 µg/mL
same,solubility,[10],6.58 µg/mL
same,Activity,Mus musculus [11],Active
same,Activity,Mus musculus [12],Active
same,Ratio,Mus musculus [13],0.923
same,Activity,Mus musculus [14],Active
same,Activity,Mus musculus [15],Active
same,Activity,Mus musculus [16],Active
same,Activity,Mus musculus [17],Active
same,Activity,Mus musculus [18],Active
same,Activity,Mus musculus [19],89 - 92%
same,Activity,Mus musculus [20],Active
